Consider six compounds from patent US20120041030A1, “PYRIDINE THIO DERIVATIVE, AND PHARMACEUTICAL COMPOSITION WHICH CONTAINS SAME AND HAS ANTI-HELICOBACTER PYLORI ACTION” (priority 2009, published 2012).

What all share (format): cell-based
For assay [1], the system named is Helicobacter pylori (ATCC 43504). As to the kind of experiment: Antibacterial test (MIC) against Helicobacter pylori. The settings on record: for minimum inhibitory concentration (MIC): Helicobacter pylori ATCC 43504; for minimum inhibitory concentration (MIC) / MIC: Columbia agar medium, 37° C., pH 7.0, cultured three days, MIC found on the fourth day; for MIC: Helicobacter pylori, ATCC43504, 72 h, pH 7, Helicobacter pylori ATCC 43504, read-out: minimum inhibitory concentration (MIC). Here is the method: (§1) ATCC43504 which was a standard bacterial strain was used as Helicobacter pylori (H. pylori) to perform the test in vitro in a Columbia agar medium. The bacteria were cultured at 37° C. and a pH of 7.0 for three days. The minimum inhibitory concentration (MIC, μg/ml) was found on the fourth day. Each sample was dissolved in 1% DMSO to use. […] As bacteria for comparison, Gram negative bacteria, for example, E. coli (ATCC 10536 ATCC 25922), Klebsiella pneumonia (ATCC 10031), Proteus vulgaris (ATCC 13315), Pseudomonas aeruginosa (ATCC 9027) and Salmonella typhimurium (ATCC 13311) were used and Gram positive bacteria, for example, Staphylococcus aureus, MRSA (ATCC 33591), Staphylococcus epidermidis (ATCC 12228), Streptococcus pneumonia (ATCC 6301), Mycobacterium ranae (ATCC 110) and Enterococcus faecalis (VRE, ATCC 51575) were used.
(§2) The values in each table show minimum inhibitory concentrations (MIC, μg/ml).

Assay [2] has as its system Gram negative or Gram positive bacteria. Nature of the assay: Antibacterial test (MIC), comparison bacteria summarised in text. The settings on record: text summary over the comparison bacteria. Here is the method:
ATCC43504 which was a standard bacterial strain was used as Helicobacter pylori (H. pylori) to perform the test in vitro in a Columbia agar medium. The bacteria were cultured at 37° C. and a pH of 7.0 for three days. The minimum inhibitory concentration (MIC, μg/ml) was found on the fourth day. Each sample was dissolved in 1% DMSO to use. As control drugs for the antibacterial agent, ampicillin (AMPC), clarithromycin (CAM), and gentamycin (GEM) were used. As bacteria for comparison, Gram negative bacteria, for example, E. coli (ATCC 10536 ATCC 25922), Klebsiella pneumonia (ATCC 10031), Proteus vulgaris (ATCC 13315), Pseudomonas aeruginosa (ATCC 9027) and Salmonella typhimurium (ATCC 13311) were used and Gram positive bacteria, for example, Staphylococcus aureus, MRSA (ATCC 33591), Staphylococcus epidermidis (ATCC 12228), Streptococcus pneumonia (ATCC 6301), Mycobacterium ranae (ATCC 110) and Enterococcus faecalis (VRE, ATCC 51575) were used.
as §2

Assay [3] has as its system Pseudomonas aeruginosa (ATCC 9027). Nature of the assay: Antibacterial test (MIC), comparison bacteria. The settings on record: for minimum inhibitory concentration (MIC): Gram negative; for MIC: ATCC9027, Gram negative, read-out: minimum inhibitory concentration (MIC). Here is the method: as §1, §2
For assay [4], the system named is Proteus vulgaris (ATCC 13315). Nature of the assay: Antibacterial test (MIC), comparison bacteria. Conditions: for minimum inhibitory concentration (MIC): Gram negative; for MIC: ATCC13315, Gram negative, read-out: minimum inhibitory concentration (MIC). Here is the method: as §1, §2
For assay [5], the system named is Salmonella typhimurium (ATCC 13311). Nature of the assay: Antibacterial test (MIC), comparison bacteria. Conditions: Gram negative; for MIC: Salmonella enterica, read-out: minimum inhibitory concentration (MIC). Here is the method:
as §1, §2

Assay [6] deals with Escherichia coli (ATCC 25922). Nature of the assay: Antibacterial test (MIC), comparison bacteria. Conditions: for minimum inhibitory concentration (MIC): Gram negative; for MIC: ATCC25922, Gram negative, read-out: minimum inhibitory concentration (MIC). Here is the method:
as §1, §2

For assay [7], the system named is Staphylococcus epidermidis (ATCC 12228). As to the kind of experiment: Antibacterial test (MIC), comparison bacteria. The settings on record: for minimum inhibitory concentration (MIC): Gram positive; for MIC: ATCC12228, Gram positive, read-out: minimum inhibitory concentration (MIC). Here is the method:
as §1, §2

In assay [8] the test system is Mycobacterium ranae (ATCC 110). As to the kind of experiment: Antibacterial test (MIC), comparison bacteria. Conditions: for minimum inhibitory concentration (MIC): Gram positive; for MIC: ATCC110, Gram positive, read-out: minimum inhibitory concentration (MIC). Here is the method:
as §1, §2

In assay [9] the test system is Staphylococcus aureus (MRSA, ATCC 33591). Nature of the assay: Antibacterial test (MIC), comparison bacteria. Conditions: Gram positive; for MIC: read-out: minimum inhibitory concentration (MIC). Here is the method: as §1, §2
In assay [10] the test system is Escherichia coli (ATCC 10536). Nature of the assay: Antibacterial test (MIC), comparison bacteria. The settings on record: for minimum inhibitory concentration (MIC): Gram negative; for MIC: ATCC10536, Gram negative, read-out: minimum inhibitory concentration (MIC). Here is the method: as §1, §2
Assay [11] relates to Streptococcus pneumonia (ATCC 6301). Nature of the assay: Antibacterial test (MIC), comparison bacteria. The settings on record: for minimum inhibitory concentration (MIC): Gram positive; for MIC: Streptococcus pneumoniae, ATCC6301, Gram positive, read-out: minimum inhibitory concentration (MIC). Here is the method: as §1, §2
Assay [12] relates to Klebsiella pneumonia (ATCC 10031). As to the kind of experiment: Antibacterial test (MIC), comparison bacteria. The settings on record: for minimum inhibitory concentration (MIC): Gram negative; for MIC: Klebsiella pneumoniae, ATCC10031, Gram negative, read-out: minimum inhibitory concentration (MIC). Here is the method: as §1, §2
In assay [13] the test system is Enterococcus faecalis (VRE, ATCC 51575). As to the kind of experiment: Antibacterial test (MIC), comparison bacteria. Conditions: Gram positive; for MIC: read-out: minimum inhibitory concentration (MIC). Here is the method: as §1, §2

Turning to Gentamycin [GEM, reference compound], the “minimum inhibitory concentration (MIC)” value in assay [1] came to 0.3 µg/mL; in assay [3], 1.0 µg/mL; in assay [4], 0.3 µg/mL; in assay [5], 3.0 µg/mL; in [6], 1.0 µg/mL; in [7], 0.1 µg/mL. The “minimum inhibitory concentration (MIC)” value is 0.3 µg/mL in [8]; 1.0 µg/mL in [9]; 0.3 µg/mL in [10]; 100 µg/mL in [11]; 1.0 µg/mL in assay [12]; 100 µg/mL in assay [13]. The “MIC against Helicobacter pylori” value in assay [1] (control drug) is 0.3 µg/mL. Moreover, in [2], the “MIC against Gram negative or Gram positive bacteria” value was 0.1 to 1.0 µg/mL.
Regarding `Cc1c(OCCOCCOCC(F)(F)F)ccnc1SCc1nc2ccccc2[nH]1.Cl` [Example 9], the “minimum inhibitory concentration (MIC)” value in assay [1] is 0.3 µg/mL; in assay [3], 100< μg/ml; in assay [4], 100< μg/ml; in assay [5], 100< μg/ml; in [6], 100< μg/ml; in assay [7] it was 100< μg/ml. Further, the “minimum inhibitory concentration (MIC)” value in assay [8], in [9], in assay [10], in assay [11], in assay [12] and in [13] was 100< μg/ml throughout.
In the case of `CCCCCOc1ccnc(SCc2nc3ccccc3[nH]2)c1C.Cl` [Example 10, 2-[[(4-pentyloxy-3-methyl-2-pyridyl)thio]-methyl]-1H-benzimidazole hydrochloride], the MIC in [1] is 0.1 µg/mL; in assay [3] it was more than 100 µg/mL; in assay [4], more than 100 µg/mL; in [5], more than 100 µg/mL; in assay [6] it was more than 100 µg/mL; in assay [7], more than 100 µg/mL. The MIC in assay [8], in assay [9], in assay [10], in assay [11], in assay [12] and in [13] was more than 100 µg/mL throughout.
Turning to `COCCCCSc1ccnc(SCc2nc3ccccc3[nH]2)c1C.Cl` [Example 1, 2-[[[4-[(4-methoxy-butyl]thio]-3-methyl-2-pyridyl]thio]methyl]-1H-benzimidazole hydrochloride], the MIC in assay [1] was not above 0.03 µg/mL; in assay [3], more than 100 µg/mL; in assay [4] it was more than 100 µg/mL; in assay [5], more than 100 µg/mL; in assay [6] it was more than 100 µg/mL; in assay [7] it was more than 100 µg/mL. Moreover, the MIC in [8], in assay [9], in assay [10], in assay [11], in assay [12] and in [13] was more than 100 µg/mL in each case.
For the compound `COCCOCCOc1ccnc(SCc2nc3ccccc3[nH]2)c1C.Cl` [Example 12, 2-[[[4-[2-(2-methoxyethoxy)-ethoxy]-3-methyl-2-pyridyl]thio]-methyl]-1H-benzimidazole hydrochloride], the MIC in assay [1] was 0.3 µg/mL; in assay [3], more than 100 µg/mL; in [4] it was more than 100 µg/mL; in [5], more than 100 µg/mL; in [6], more than 100 µg/mL; in [7], more than 100 µg/mL. Also, the MIC in assay [8], in assay [9], in assay [10], in assay [11], in assay [12] and in assay [13] was more than 100 µg/mL in each case.
Consider `CCCOc1ccnc(SCc2nc3ccccc3[nH]2)c1C.Cl` [Example 4, 2-[[(4-n-propoxy-3-methyl-2-pyridyl)thio]-methyl]-1H-benzimidazole hydrochloride], for which the MIC in assay [1] was 0.3 µg/mL; in assay [3], more than 100 µg/mL; in [4], more than 100 µg/mL; in assay [5], more than 100 µg/mL; in assay [6] it was more than 100 µg/mL; in [7], more than 100 µg/mL. The MIC in assay [8], in assay [9], in assay [10], in assay [11], in [12] and in assay [13] was more than 100 µg/mL in each case.
